Laboratory results: ChEMBL document CHEMBL1759846, “Identification of potent, soluble, and orally active TRPV1 antagonists” (Bioorg Med Chem Lett, 2011)
≈ marks a conversion by molar mass, not a printed value. Calls of active or inactive are those of the source. No cut-off for these calls is given here.

Experiments:
[1] = molecular target: Transient receptor potential cation channel subfamily V member 1 (Homo sapiens, UniProt Q8NER1); assay: Antagonist activity at human TRPV1 expressed in CHO-K1 cells assessed as inhibition of capsaicin-induced intracellular Ca2+ influx by FLIPR assay; assay type: functional, cell-based
[2] = Aqueous solubility of the compound in 0.05 M phosphate buffer at pH 7.4 by shake-flask method; assay type: physicochemical
[3] = Octanol-water partition coefficient, log D of the compound at pH 7.4 by RP-HPLC analysis; assay type: physicochemical
[4] = Intrinsic clearance in human liver microsomes; assay type: ADME, Microsome
[5] = Intrinsic clearance in rat liver microsomes; assay type: ADME, Microsome
Hepatocyte = assay: Intrinsic clearance in rat hepatocytes; assay type: ADME, cell-based, Liver
[6] = Plasma protein binding in human; assay type: ADME, cell-free; settings: read-out: PPB (converted)
[7] = Plasma protein binding in Wistar rat; assay type: ADME, cell-free; settings: read-out: PPB (converted)
[8] = Clearance in Wistar rat at 10 mg/kg, po and 2 mg/kg, iv; assay type: ADME, organism-based; settings: in vivo
[9] = Volume of distribution at steady state in Wistar rat at 10 mg/kg, po and 2 mg/kg, iv; assay type: ADME, organism-based; settings: in vivo, read-out: Vdss
[10] = Half life in Wistar rat plasma at 10 mg/kg, po and 2 mg/kg, iv; assay type: ADME, organism-based
[11] = Cmax in Wistar rat at 10 mg/kg, po; assay type: ADME, organism-based; set-up: dose 10 mg/kg, route oral; settings: in vivo
[12] = Tmax in Wistar rat at 10 mg/kg, po; assay type: ADME, organism-based; set-up: dose 10 mg/kg, route oral; settings: in vivo
[13] = Oral bioavailability in Wistar rat at 10 mg/kg; assay type: ADME, organism-based; settings: in vivo
Rattus norvegicus [14] = assay: Antiinflammatory activity against capsaicin-induced thermal hyperalgesia in rat assessed as paw withdrawal latency at 3 to 30 umol/kg, po administered 2 hrs before capsaicin challenge measured after 15 mins; assay type: functional, organism-based
Rattus norvegicus [15] = assay: Antiinflammatory activity against capsaicin-induced thermal hyperalgesia in po dosed rat assessed as paw withdrawal latency administered 2 hrs before capsaicin challenge measured after 15 mins; assay type: functional

Sequence of Transient receptor potential cation channel subfamily V member 1 (Q8NER1 whole entry): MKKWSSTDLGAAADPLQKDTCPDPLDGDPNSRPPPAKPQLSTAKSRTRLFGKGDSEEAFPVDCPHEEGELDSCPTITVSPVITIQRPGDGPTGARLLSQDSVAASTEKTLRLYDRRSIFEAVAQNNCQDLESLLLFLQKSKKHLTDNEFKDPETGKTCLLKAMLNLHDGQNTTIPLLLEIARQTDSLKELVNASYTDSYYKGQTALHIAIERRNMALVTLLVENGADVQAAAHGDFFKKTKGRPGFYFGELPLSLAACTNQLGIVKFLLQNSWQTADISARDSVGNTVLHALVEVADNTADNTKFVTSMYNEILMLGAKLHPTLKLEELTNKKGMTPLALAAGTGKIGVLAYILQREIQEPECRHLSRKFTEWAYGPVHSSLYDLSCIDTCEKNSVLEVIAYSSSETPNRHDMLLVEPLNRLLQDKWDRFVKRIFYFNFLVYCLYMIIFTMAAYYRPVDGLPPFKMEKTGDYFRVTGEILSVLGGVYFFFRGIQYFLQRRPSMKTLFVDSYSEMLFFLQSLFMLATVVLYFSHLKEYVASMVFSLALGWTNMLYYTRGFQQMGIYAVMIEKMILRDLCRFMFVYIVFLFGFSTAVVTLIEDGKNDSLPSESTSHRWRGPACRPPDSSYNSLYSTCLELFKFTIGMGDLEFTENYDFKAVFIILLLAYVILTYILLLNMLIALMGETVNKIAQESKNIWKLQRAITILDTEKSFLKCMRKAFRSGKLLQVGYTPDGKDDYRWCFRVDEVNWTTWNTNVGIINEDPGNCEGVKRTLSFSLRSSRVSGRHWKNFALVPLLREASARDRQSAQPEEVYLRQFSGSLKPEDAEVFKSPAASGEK

| IC50 [1] [nM] | solubility thermodynamic [2] [µg/mL] | logD [3] | microsomal CLint [4] [µL/min/mg] | microsomal CLint [5] [µL/min/mg] | fraction unbound [6] | fraction unbound [7] | Compound | other results |
| --- | --- | --- | --- | --- | --- | --- | --- | --- |
| 15.8 | 26 (≈ 59.4 µM) | 4.3 |  |  |  |  | O=C(N[C@@H]1CCC[C@H](O)C1)c1noc(-c2ccc(C(F)(F)F)cc2)c1CNC1CCC1 |  |
| 3160 | 30 (≈ 60.7 µM) | 3.6 |  |  |  |  | NC(=O)C1CCN(Cc2c(C(=O)N[C@@H]3CCC[C@H](O)C3)noc2-c2ccc(C(F)(F)F)cc2)CC1 |  |
| 3.16 | 89 (≈ 190 µM) | 3.5 | 12 | 93 | 0.361 | 0.168 | CC(C)(CO)CNCc1c(C(=O)N[C@@H]2CCC[C@H](O)C2)noc1-c1ccc(C(F)(F)F)cc1 | CL (Hepatocyte): 10 µL/min |
| 1 | 78 (≈ 177 µM) | 4.3 | 12 | 107 | 0.177 | 0.242 | CC(C)CNCc1c(C(=O)N[C@@H]2CCC[C@H](O)C2)noc1-c1ccc(C(F)(F)F)cc1 | CL (Hepatocyte): 12 µL/min; clearance [8]: 69 mL/min/kg; Vd [9]: 7.6 L/kg; half-life [10]: 4 h; Cmax [11]: 420 nM; Tmax [12]: 2 h; bioavailability [13]: 33%; Activity (Rattus norvegicus [14]): Active; MED (Rattus norvegicus [15]): 30 µmol/kg |
| 7.94 | 83 (≈ 182 µM) | 4 |  |  |  |  | COCCN(C)Cc1c(C(=O)N[C@@H]2CCC[C@H](O)C2)noc1-c1ccc(C(F)(F)F)cc1 |  |
|  | 77 (≈ 176 µM) | 3.5 | 48 | 55 |  |  | O=C(N[C@@H]1CCC[C@H](O)C1)c1noc(-c2ccc(C(F)(F)F)cc2)c1CNCC1CC1 |  |
| 1260 | 26 (≈ 51.6 µM) | 3.6 |  |  |  |  | CN(CCS(C)(=O)=O)Cc1c(C(=O)N[C@@H]2CCC[C@H](O)C2)noc1-c1ccc(C(F)(F)F)cc1 |  |
| 10 | 87 (≈ 176 µM) | 4.7 |  |  |  |  | O=C(N[C@@H]1CCC[C@H](O)C1)c1noc(-c2ccc(C(F)(F)F)cc2)c1CNCC(O)C(F)(F)F (some centres undefined) |  |
| 2.51 | 79 (≈ 168 µM) | 4.2 | 12 | 41 | 0.256 | 0.116 | CC(C)[C@H](CO)NCc1c(C(=O)N[C@@H]2CCC[C@H](O)C2)noc1-c1ccc(C(F)(F)F)cc1 | clearance [8]: 13.5 mL/min/kg; Vd [9]: 3.5 L/kg; half-life [10]: 4.3 h; Cmax [11]: 230 nM; Tmax [12]: 1.5 h; bioavailability [13]: 4% |
| 79.4 | 82 (≈ 170 µM) | 3.7 |  |  |  |  | CN(Cc1c(C(=O)N[C@@H]2CCC[C@H](O)C2)noc1-c1ccc(C(F)(F)F)cc1)C1CCOCC1 |  |
|  | 82 (≈ 193 µM) | 3 | < 12 | < 12 | 0.25 | 0.271 | CC(C)NCc1c(C(=O)N[C@@H]2CCC[C@H](O)C2)noc1-c1ccc(C(F)(F)F)cc1 | CL (Hepatocyte): < 6 µL/min; clearance [8]: 12.5 mL/min/kg; Vd [9]: 5.9 L/kg; half-life [10]: 7.9 h; Cmax [11]: 720 nM; Tmax [12]: 2 h; bioavailability [13]: 20% |
| 0.158 | 3.5 (≈ 7.3 µM) | 5.6 | 66 | 49 | 0.048 | 0.037 | C[C@H](NCc1c(C(=O)N[C@@H]2CCC[C@H](O)C2)noc1-c1ccc(C(F)(F)F)cc1)C(F)(F)F |  |
| 12.6 | 6.6 (≈ 14.1 µM) | 4.5 |  |  |  |  | CN(Cc1c(C(=O)N[C@@H]2CCC[C@H](O)C2)noc1-c1ccc(C(F)(F)F)cc1)[C@@H]1CCOC1 |  |
| 126 | 80 (≈ 181 µM) | 3.7 |  |  |  |  | COCCNCc1c(C(=O)N[C@@H]2CCC[C@H](O)C2)noc1-c1ccc(C(F)(F)F)cc1 |  |
| 5.01 | 31 (≈ 64.4 µM) | 3.6 |  |  |  |  | CN(Cc1c(C(=O)N[C@@H]2CCC[C@H](O)C2)noc1-c1ccc(C(F)(F)F)cc1)C[C@@H]1CCCO1 |  |
| 1.26 |  | 4.4 | 21 | 144 |  |  | O=C(N[C@@H]1CCC[C@H](O)C1)c1noc(-c2ccc(C(F)(F)F)cc2)c1CNCC1CCC1 |  |
| 10 | 81 (≈ 173 µM) | 4.1 |  |  |  |  | CC(C)[C@@H](CO)NCc1c(C(=O)N[C@@H]2CCC[C@H](O)C2)noc1-c1ccc(C(F)(F)F)cc1 |  |
| 3.16 | 21 (≈ 49.6 µM) | 4.5 | 17 | < 12 | 0.118 | 0.064 | O=C(N[C@@H]1CCC[C@H](O)C1)c1noc(-c2ccc(C(F)(F)F)cc2)c1CNC1CC1 | CL (Hepatocyte): < 6 µL/min |
| 25.1 | 80 (≈ 182 µM) | 4 |  |  |  |  | CC(C)N(C)Cc1c(C(=O)N[C@@H]2CCC[C@H](O)C2)noc1-c1ccc(C(F)(F)F)cc1 |  |
| 25.1 | 85 (≈ 187 µM) | 4.1 |  |  |  |  | CCN(Cc1c(C(=O)N[C@@H]2CCC[C@H](O)C2)noc1-c1ccc(C(F)(F)F)cc1)C(C)C |  |
